Data on three compounds can be found in US4473646A, “Stereospecific asparaginases” (Development Finance Corp. of New Zealand, priority 1980, dated 1984).

What all share (assay type): biochemical
Assay [1] deals with D-asparaginase THERMUS T-351 (ATCC No. 31,674). The experiment in a line: Asparaginase properties: Km and inhibitors. The settings on record: for Inhibitors: loss of activity: inhibitor concentration not stated.
Assay [2] has as its system L-asparaginase THERMUS T-351 (ATCC No. 31,674). Nature of the assay: Asparaginase properties: inhibitors. Particulars: inhibitor concentration not stated.
The target in assay [3] is T1, L-asparaginase E. COLI (B) (for comparison) (Escherichia coli, UniProt P00805).
T1 sequence (P00805 23-348): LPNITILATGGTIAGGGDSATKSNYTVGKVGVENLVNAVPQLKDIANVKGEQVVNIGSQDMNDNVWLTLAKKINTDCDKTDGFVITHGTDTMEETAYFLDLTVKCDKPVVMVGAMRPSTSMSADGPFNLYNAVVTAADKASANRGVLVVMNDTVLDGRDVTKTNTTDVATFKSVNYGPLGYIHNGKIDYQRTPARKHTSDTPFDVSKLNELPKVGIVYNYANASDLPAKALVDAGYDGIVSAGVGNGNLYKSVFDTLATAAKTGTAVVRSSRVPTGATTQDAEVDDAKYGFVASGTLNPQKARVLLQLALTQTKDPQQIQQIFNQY
Nature of the assay: Asparaginase properties: Km and inhibitors (for comparison). The settings on record: inhibitor concentration not stated.

On to `CC(N)=O` [Acetamide], for which the results for the “Inhibitors: loss of activity” value in assay [1], in assay [2] and in assay [3] were 100%, “No loss of activity” and “No loss of activity”, respectively.

The Km is the substrate concentration at which the rate is half of its maximum. For `NC(=O)C[C@@H](N)C(=O)O` [D-asparagine], the Km in assay [1] (substrate not given, enzyme specific only for D-asparagine) was 20 mM.

For `O=C(O)c1cc[c]([Hg][Cl])cc1` [pCMB], the “Inhibitors: loss of activity” value in assay [1] is on record as “No loss of activity”; in assay [2], 100%; in assay [3] it was “No loss of activity”.
